# Test results published in article PMC12794188, “Maternal–Fetal Transfer and Toxicokinetics of 2,2′,5,5′-Tetrachlorobiphenyl, [^14C]-PCB52, Following Intratracheal Administration” (Chemical Research in Toxicology, 2025).
# Assay: Toxicokinetics and tissue disposition of total [14C] radioactivity after a single intratracheal dose of [14C]-PCB52 (0.157 mg/kg) in pregnant rats at GD 11±1
# Format: in vivo, Sprague–Dawley rats
# Procedure: Female Sprague–Dawley rats (8 weeks old) weighing 237–269.7 g (mean = 247.5 g) (Envigo RMS, LLC, Indianapolis, IN) were used for this study. All animal experiments were performed following the protocols evaluated and approved by the University of Iowa Institutional Animal Care and Use Committee (approval number 3091097). After arrival, the animals were acclimated for 7 days. The animals were housed in a light and temperature-controlled environment with ad libitum access to food and water during quarantine and throughout the study. Timed pregnancy was achieved by harem mating. , Briefly, one male and two female rats were placed together in the evening and checked for vaginal plug the following day. If vaginal plug was present, the male was removed from the breeding cage, and the gestation day 0 (GD 0), 0-day post coitum was assigned. Pregnancies were confirmed by ultrasound scan at GD 9. The dams were exposed at GD 11 (±1 day) to capture the period of early organogenesis and hormonal function, which falls within week 3 of human embryonic development. ,− On the day of the experiment, pregnant rats were intratracheally administered an average of 40 μg (range, 35–45 μg) of [^14C]-PCB52 in 100 μL of exposure solution. Although the dose used in this study exceeded the tolerable daily intake (TDI) of PCBs for healthy individuals, which is 1.6 μg per day for an individual weighing 80 kg, the use of higher acute doses has been established in toxicological studies intended for risk assessment. The intratracheal instillation method was chosen for administering [^14C]-PCB52 to represent inhalation exposures, capture exhaled concentration, and efficiently utilize the limited availability of the cost-intensive radiolabeled PCB52. , Although inhalation exposure would better represent real-world exposures to airborne LC-PCBs, it would not allow us to accurately measure the amount of PCB52 exhaled into the air after exposure and is experimentally infeasible. […] All intratracheal instillations were done under light anesthesia, achieved using a 4% isoflurane concentration via a Fortec vaporizer (Cyprane, Keighley, UK). The animals recovered from anesthesia within 1 min. Subsequently, the animals were housed within a cylindrical glass chamber measuring 2 L in volume, equipped with glass drainage mechanisms to facilitate urine collection and a metallic screen to segregate urine from feces (as in Figure S1). Air was drawn from the chamber at 6.0 L/min through a cartridge containing the XAD-2 polymeric resin to capture any exhaled [^14C]-PCB52. For periods longer than 24 h postexposure, exposed dams were placed in a metabolic cage, which was fitted with a cartridge containing XAD-2 to capture exhaled [^14C]-PCB52 as in other end points.
# Maternal blood, urine, and feces samples were collected immediately before and at 0.21, 1.67, 12, 24, 48, and 96 h after lung dosing. The exposed dams were euthanized using 4% isoflurane, followed by cervical dislocation and exsanguination via a cardiac puncture. Euthanasia was consistently performed during the light cycle. Dams’ fur was wiped and analyzed for radioactivity. Using the retro-orbital blood collection method, 0.5–1.5 mL ([…] of an exposed pregnant rat’s body weight) of blood sample was collected from each of the dams until the individual dams were necropsied for whole-body tissue harvesting. At the end of the exposure period, the chamber’s interior walls were rinsed separately with water and acetone/hexane (25 – 45 mL) and wiped to measure residues. From the collected whole blood samples, 100 μL were aliquoted into three vials each, and the remaining blood was allowed to clot at room temperature before being centrifuged to yield serum. The placentas, developing fetuses, and whole-body tissue samples were harvested immediately before exposure and at 0.21, 1.67, 12, 24, and 96 h postexposure. […]
# [1] = Mammary glands, 0.21 h post-exposure
# [2] = Mammary glands, 1.67 h post-exposure
# [3] = Mammary glands, 12 h post-exposure
# [4] = Mammary glands, 24 h post-exposure
# [5] = Mammary glands, 96 h post-exposure
# [6] = Matter in duodenum, 0.21 h post-exposure
# [7] = Matter in duodenum, 1.67 h post-exposure
# [8] = Matter in duodenum, 12 h post-exposure
# [9] = Matter in duodenum, 24 h post-exposure
# [10] = Matter in duodenum, 96 h post-exposure
# [11] = Matter in intestine, 0.21 h post-exposure
# [12] = Matter in intestine, 1.67 h post-exposure
# [13] = Matter in intestine, 12 h post-exposure
# [14] = Matter in intestine, 24 h post-exposure
# [15] = Matter in intestine, 96 h post-exposure
# [16] = Matter in stomach, 0.21 h post-exposure
# [17] = Matter in stomach, 1.67 h post-exposure
# [18] = Matter in stomach, 12 h post-exposure
# [19] = Matter in stomach, 24 h post-exposure
# [20] = Matter in stomach, 96 h post-exposure
structure (smiles),measurement,setting,value
"Clc1ccc(Cl)c(-c2cc(Cl)ccc2Cl)c1 [PCB52, 2,2′,5,5′-Tetrachlorobiphenyl]",Conc. per mg wet tissue,"Esophagus, 96 h post-exposure",0.25 dpm/mg
same,Percent tissue distribution,"Esophagus, 96 h post-exposure",0.003%
same,AUC_%Extrap,Fetus,9.23%
same,Terminal elimination half-life (t1/2),Fetus,34.78 h
same,maternal serum exposure ratio,Fetus,0.27
same,AUC_%Extrap,Heart,6.21%
same,Terminal elimination half-life (t1/2),Heart,26.21 h
same,Conc. per mg wet tissue,"Heart, 96 h post-exposure",0.61 dpm/mg
same,AUC_%Extrap,Kidney,13.09%
same,Terminal elimination half-life (t1/2),Kidney,35.41 h
same,AUC_%Extrap,Liver,14.37%
same,Terminal elimination half-life (t1/2),Liver,42.13 h
same,Conc. per mg wet tissue,"Liver, 0.21 h post-exposure",55.77 dpm/mg
same,Percent tissue distribution,"Liver, 0.21 h post-exposure",17.36%
same,Conc. per mg wet tissue,"Liver, 1.67 h post-exposure",23.78 dpm/mg
same,Percent tissue distribution,"Liver, 1.67 h post-exposure",6.58%
same,Conc. per mg wet tissue,"Liver, 12 h post-exposure",11.09 dpm/mg
same,Percent tissue distribution,"Liver, 12 h post-exposure",1.88%
same,Conc. per mg wet tissue,"Liver, 24 h post-exposure",8.22 dpm/mg
same,Percent tissue distribution,"Liver, 24 h post-exposure",1.63%
same,Conc. per mg wet tissue,"Liver, 96 h post-exposure",1.16 dpm/mg
same,Percent tissue distribution,"Liver, 96 h post-exposure",0.41%
same,AUC_%Extrap,Lung,4.66%
same,Terminal elimination half-life (t1/2),Lung,22.05 h
same,AUC_%Extrap,Mammary glands,15.15%
same,Terminal elimination half-life (t1/2),Mammary glands,34.16 h
same,Conc. per mg wet tissue,[1],5.39 dpm/mg
same,Percent tissue distribution,[1],0.28%
same,Conc. per mg wet tissue,[2],2.46 dpm/mg
same,Percent tissue distribution,[2],1.21%
same,Conc. per mg wet tissue,[3],0.74 dpm/mg
same,Percent tissue distribution,[3],1.18%
same,Conc. per mg wet tissue,[4],1.55 dpm/mg
same,Percent tissue distribution,[4],0.90%
same,Conc. per mg wet tissue,[5],1.67 dpm/mg
same,Percent tissue distribution,[5],0.18%
same,AUC_%Extrap,Matter in Colon,23.30%
same,Terminal elimination half-life (t1/2),Matter in Colon,40.00 h
same,AUC_%Extrap,Matter in amp colon,13.09%
same,Terminal elimination half-life (t1/2),Matter in amp colon,30.46 h
same,AUC_%Extrap,Matter in duodenum,26.66%
same,Terminal elimination half-life (t1/2),Matter in duodenum,34.63 h
same,Conc. per mg wet tissue,[6],6.81 dpm/mg
same,Percent tissue distribution,[6],0.44%
same,Conc. per mg wet tissue,[7],51.01 dpm/mg
same,Percent tissue distribution,[7],0.57%
same,Conc. per mg wet tissue,[8],14.38 dpm/mg
same,Percent tissue distribution,[8],0.16%
same,Conc. per mg wet tissue,[9],16.72 dpm/mg
same,Percent tissue distribution,[9],0.19%
same,Conc. per mg wet tissue,[10],0.68 dpm/mg
same,Percent tissue distribution,[10],0.33%
same,AUC_%Extrap,Matter in intestine,2.18%
same,Terminal elimination half-life (t1/2),Matter in intestine,17.41 h
same,Conc. per mg wet tissue,[11],10.76 dpm/mg
same,Percent tissue distribution,[11],0.70%
same,Conc. per mg wet tissue,[12],1.07 dpm/mg
same,Percent tissue distribution,[12],4.97%
same,Conc. per mg wet tissue,[13],0.75 dpm/mg
same,Percent tissue distribution,[13],1.53%
same,Conc. per mg wet tissue,[14],13.86 dpm/mg
same,Percent tissue distribution,[14],2.58%
same,Conc. per mg wet tissue,[15],0.41 dpm/mg
same,Percent tissue distribution,[15],0.02%
same,AUC_%Extrap,Matter in stomach,4.07%
same,Terminal elimination half-life (t1/2),Matter in stomach,16.50 h
same,Conc. per mg wet tissue,[16],28.20 dpm/mg
same,Percent tissue distribution,[16],0.47%
same,Conc. per mg wet tissue,[17],5.71 dpm/mg
same,Percent tissue distribution,[17],0.06%
same,Conc. per mg wet tissue,[18],1.71 dpm/mg
same,Percent tissue distribution,[18],0.09%
same,Conc. per mg wet tissue,[19],1.57 dpm/mg
same,Percent tissue distribution,[19],1.52%
same,Conc. per mg wet tissue,[20],0.18 dpm/mg
same,Percent tissue distribution,[20],0.04%
same,AUC_%Extrap,Muscle,96.68%
same,Terminal elimination half-life (t1/2),Muscle,1231.42 h
same,Conc. per mg wet tissue,"Muscle, 0.21 h post-exposure",1.58 dpm/mg
same,Percent tissue distribution,"Muscle, 0.21 h post-exposure",28.65%
same,Conc. per mg wet tissue,"Muscle, 96 h post-exposure",1.58 dpm/mg
same,AUC_%Extrap,Ovary,25.93%
same,Terminal elimination half-life (t1/2),Ovary,46.53 h
same,Conc. per mg wet tissue,"Ovary, 0.21 h post-exposure",19.85 dpm/mg
